The NIST ThermoML archive (doi:10.1016/j.jct.2005.01.007)
Where “and” joins values, the source holds several entries; their conditions need not be identical. Equal entries are not always repeated.

How the values were obtained:
[1] = refractive index (Na D-line) (dimensionless); conditions: 298.15 K; 101.33 kPa; Liquid; Standard Abbe refractometry
[2] = 101 kPa, Liquid
[3] = xn = mol fraction of the nth substance listed; conditions: 101 kPa, Liquid

CCc1ccccc1 [ethylbenzene]
Conditions | refractive index
[1] | 1.4931

[2]
Conditions | mass density [kg/m3]
298.15 K | 862.26
328.15 K | 835.86

Cc1ccccc1 [toluene] + CCC(=O)c1ccccc1
[3], x1 = 1
Conditions | mass density [kg/m3]
298.15 K | 862.25
328.15 K | 834.25

CCCCc1ccccc1 [butylbenzene]
Conditions | refractive index
[1] | 1.4874

[2]
Conditions | mass density [kg/m3]
298.15 K | 856.23
328.15 K | 832.29

CCC(=O)c1ccccc1 [ethyl phenyl ketone] + Cc1ccccc1
mass density [kg/m3], [3]
Conditions | 298.15 K | 328.15 K
x2 = 0 | 1005.26 | 979.48
x2 = 0.09253 | 995.05 | 969.14
x2 = 0.1872 | 984.09 | 958.07
x2 = 0.2777 | 973.13 | 946.96
x2 = 0.3634 | 962.24 | 935.91
x2 = 0.4547 | 950.09 | 923.57
x2 = 0.5572 | 935.66 | 908.94
x2 = 0.6402 | 923.36 | 896.42
x2 = 0.7203 | 910.9 | 883.78
x2 = 0.8278 | 893.2 | 865.77
x2 = 0.9099 | 878.86 | 851.18

c1ccccc1 [benzene]
Conditions | refractive index
[1] | 1.4979

[2]
Conditions | mass density [kg/m3]
298.15 K | 873.62
328.15 K | 841.52

CCC(=O)c1ccccc1 [ethyl phenyl ketone] + c1ccccc1
mass density [kg/m3], [3]
Conditions | 298.15 K | 328.15 K
x2 = 0 | 1005.24 | 979.46
x2 = 0.1079 | 995.49 | 969.44
x2 = 0.1982 | 986.83 | 960.49
x2 = 0.2725 | 979.24 | 952.7
x2 = 0.3691 | 968.74 | 941.82
x2 = 0.4557 | 958.59 | 931.35
x2 = 0.5205 | 950.57 | 922.98
x2 = 0.6278 | 936.19 | 907.95
x2 = 0.7441 | 919.01 | 889.82
x2 = 0.8198 | 906.77 | 876.8
x2 = 0.8966 | 893.38 | 862.6

CCC(=O)c1ccccc1 [ethyl phenyl ketone] + CCc1ccccc1
mass density [kg/m3], [3]
Conditions | 298.15 K | 328.15 K
x2 = 0 | 1005.29 | 979.5
x2 = 0.1025 | 992.18 | 966.3
x2 = 0.1878 | 981.02 | 955.11
x2 = 0.2741 | 969.49 | 943.55
x2 = 0.3668 | 956.85 | 930.84
x2 = 0.4491 | 945.37 | 919.32
x2 = 0.5504 | 930.94 | 904.84
x2 = 0.6359 | 918.44 | 892.32
x2 = 0.7246 | 905.22 | 879.02
x2 = 0.831 | 888.99 | 862.68
x2 = 0.9093 | 876.76 | 850.4

CCCCc1ccccc1 [butylbenzene] + CCC(=O)c1ccccc1
[3], x1 = 1
Conditions | mass density [kg/m3]
298.15 K | 856.23
328.15 K | 832.29

CCC(=O)c1ccccc1 [ethyl phenyl ketone] + CCCCc1ccccc1
mass density [kg/m3], [3]
Conditions | 298.15 K | 328.15 K
x2 = 0 | 1005.29 | 979.54
x2 = 0.0906 | 989.98 | 964.4
x2 = 0.1842 | 974.56 | 949.13
x2 = 0.2739 | 960.14 | 934.89
x2 = 0.3688 | 945.31 | 920.21
x2 = 0.4531 | 932.45 | 907.51
x2 = 0.5519 | 917.76 | 893
x2 = 0.6164 | 908.4 | 883.77
x2 = 0.711 | 894.97 | 870.51
x2 = 0.8053 | 881.97 | 857.68
x2 = 0.9044 | 868.69 | 844.57

c1ccccc1 [benzene] + CCC(=O)c1ccccc1
[3], x1 = 1
Conditions | mass density [kg/m3]
298.15 K | 873.62
328.15 K | 841.52

CCC(=O)c1ccccc1 [ethyl phenyl ketone]
Conditions | refractive index
[1] | 1.5245

[2]
Conditions | mass density
298.15 K | 1005.24 kg/m3 and 1005.26 kg/m3 and 1005.29 kg/m3
328.15 K | 979.5 kg/m3 [middle of 4 runs]

CCc1ccccc1 [ethylbenzene] + CCC(=O)c1ccccc1
[3], x1 = 1
Conditions | mass density [kg/m3]
298.15 K | 862.26
328.15 K | 835.86

Cc1ccccc1 [toluene]
Conditions | refractive index
[1] | 1.4941

[2]
Conditions | mass density [kg/m3]
298.15 K | 862.25
328.15 K | 834.25
